According to patent US6680330B2, “Rapamycin dialdehydes” (Wyeth, priority 2001, dated 2004):
Converted amounts (≈) assume the structure as drawn.

How the values were obtained:
Type in all cases: cell-based
[1] = tested on: 3T3 (ovarian) tumor cell line; assay: Antineoplastic activity, tumor cell growth inhibition (sulforhodamine B), 3T3; details: 48 hours; for Antineoplastic Activity IC50: 3T3 cells
Description: (§1) Antineoplastic activity for the compounds of this invention was confirmed by evaluating the antineoplastic activity of representative compounds of this invention (Examples 1-5) against six tumor cell lines in vitro. Briefly, tumor cells from six cell lines were placed in wells of a 96 well microtiter plate. The following tumor cell lines were used: 3T3 (ovarian), 3T3/H2N (ovarian—resistant to cis-platin), A431 (vulva epidermoid origin), SW620 (colon), SKBR3 (breast), and MDA-435 (breast). The tumors cells were grown in the presence of serial dilutions of the compound to be evaluated for 48 hours, and cell growth determined using a colorimetric procedure (sulforhrodamine B). The inhibition of growth was calculated compared to the number of cells at the time of test compound addition.

[2] = tested on: SW620 (colon) tumor cell line; assay: Antineoplastic activity, tumor cell growth inhibition (sulforhodamine B), SW620; details: 48 hours; for Antineoplastic Activity IC50: SW620 cells
Description: as §1

[3] = tested on: A431 (vulva epidermoid origin) tumor cell line; assay: Antineoplastic activity, tumor cell growth inhibition (sulforhodamine B), A431; details: 48 hours; for Antineoplastic Activity IC50: A431 cells
Description: as §1

[4] = tested on: 3T3/H2N (ovarian—resistant to cis-platin) tumor cell line; assay: Antineoplastic activity, tumor cell growth inhibition (sulforhodamine B), 3T3/H2N; details: 3T3/H2N cells, 48 hours
Description: as §1

[5] = tested on: SKBR3 (breast) tumor cell line; assay: Antineoplastic activity, tumor cell growth inhibition (sulforhodamine B), SKBR3; details: 48 hours; for Antineoplastic Activity IC50: SKBR3 cells
Description: as §1

[6] = tested on: MDA-435 (breast) tumor cell line; assay: Antineoplastic activity, tumor cell growth inhibition (sulforhodamine B), MDA-435; details: MDA435 cells, 48 hours
Description: as §1

SH-SY5Y cells = assay: Neurite outgrowth (neuroregeneration) test in SH-SY5Y cells; details: aphidicolin 5 days, mean ± SEM
Description: The neuroregeneration activity for the compounds of this invention was confirmed in a standard pharmacological test procedure by evaluating rapamycin dialdehyde (Example 1) and rapamycin 29-enol (Example 2), as representative compounds of this invention, against SH-SY5Y cells in vitro [Gold et al., Exp Neurol 147: 269-278, 1997]. Briefly, SH-SY5Y cells were placed in 6-well plate treated with aphidicolin for 5 days followed by the test compounds using 6-well plates. For controls, wells were untreated, or treated with nerve growth factor (NGF) alone. Test wells were treated with NGF plus Example 1 and Example 2, or rapamycin. Cells were photographed at 168 hours. Analysis of neuritic lengths was performed on photographic prints using a Houston Instrument HI-PAD digitizing tablet connected to an IBM XT computer with appropriate software (Bioquant IV, R&M Biometrics, Nashville, Tenn.). Mean values for axonal areas were compared using by ANOVA (STATVIEW, Abacus Concepts, Inc., Berkeley, Calif.). The following table summarizes the results that were obtained.

Compound | Antineoplastic Activity IC50 [1] [µg/mL] | Antineoplastic Activity IC50 [2] [µg/mL] | Antineoplastic Activity IC50 [3] [µg/mL] | Antineoplastic Activity IC50 [4] [µg/mL] | Antineoplastic Activity IC50 [5] [µg/mL] | Antineoplastic Activity IC50 [6] [µg/mL] | Mean Neurite Length after 168 h (SH-SY5Y cells; NGF alone) | Mean Neurite Length after 168 h (SH-SY5Y cells; test compound plus NGF) | IC50 ([1]; Mus musculus, NIH3T3, 3T3 cells) [µg/mL] | IC50 ([2]; Homo sapiens, SW-620, SW620 cells) [µg/mL] | IC50 ([3]; Homo sapiens, A-431, A431 cells) [µg/mL] | IC50 [4] [µg/mL] | IC50 ([5]; Homo sapiens, SK-BR-3, SKBR3 cells) [µg/mL] | IC50 [6] [µg/mL]
42-O-(2-Hydroxy)Ethyl Rapamycin Dialdehyde [IV] | 1.5 | 3.04 | 2.64 | 0.72 | 0.36 | 1.1 |  |  |  |  |  |  |  | 
NGF: nerve growth factor, used alone as control and together with test compounds |  |  |  |  |  |  | 196.5 ± 7.7 (n = 112) μm |  |  |  |  |  |  | 
42-O-(2-Hydroxy)Ethyl Rapamycin 29-enol [Example V] | >5 | >5 | >5 | 4.96 | 2.69 | >5 |  |  |  |  |  |  |  | 
Rapamycin 29-Enol [Example II] | >5 | >5 | >5 | >5 | >5 | >5 |  | 239.7 ± 10.0 (n = 155) μm |  |  |  |  |  | 
CO[C@@H](C[C@@H]1CC[C@@H](C)[C@](O)(C(=O)C(=O)N2CCCC[C@H]2C(=O)OC(CC(=O)[C@H](C)/C=C(\C)[C@@H](O)[C@@H](OC)C(=O)[C@H](C)C[C@H](C)/C=C/C=O)[C@H](C)C[C@@H]2CC[C@@H](O)[C@H](OC)C2)O1)/C(C)=C/C=O (stereo partly drawn) [Example I, Rapamycin Dialdehyde] |  |  |  |  |  |  |  | 229.8 ± 9.5 (n = 141) μm | 0.72 (≈ 0.761 µM) | 1.41 (≈ 1.49 µM) | 0.91 (≈ 0.962 µM) | 0.68 (≈ 0.719 µM) | 0.52 (≈ 0.55 µM) | 1.23 (≈ 1.3 µM)
